In one assay the target is T1, TRPML1 (Homo sapiens, UniProt Q9GZU1).
T1 construct: expressed in transfected cells; host or cells: HEK T-REx cells stably expressing GCaMP6f and TRPML1
Kind of assay: Cellular TRPML1 assay (FLIPR, GCaMP6f calcium read-out). The following applies: HEKT-REx/GCaMP6f/TRPML1 cells, FLIPR TETRA, kinetic response over 300 seconds; read-out: TRPML1 FLIPR pEC50 (converted). In kind it is cell-based. In a few lines:
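Read-out is GCaMP6f fluorescence over 300 s after compound addition in Ca2+-free Tyrode's buffer, final DMSO 0.5%, on FLIPR Tetra. Cells are HEK T-REx stably co-expressing the indicator and TRPML1, plated 24 h earlier in Optimem + 0.5% FBS and pre-incubated ~10 min at room temperature.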

The test system of a further assay is TFEB. Kind of assay: TFEB translocation assay (TFEB reporter in U2OS cells, imaging). The class given is cell-based. The following applies: Homo sapiens; U2OS cell line with TFEB reporter, 2 hours incubation, nucleus to cytoplasm ratio, normalized to Torin-1; read-out: TFEB Translocation pEC50 (converted). The protocol: Example B: TFEB Translocation Assay
Reporter TFEB: the reporter is fused to a sequence of monomeric red fluorescent protein.
The reporter TFEB have been stably expressed in U2OS cell line and used as read-out.
Experiments were performed in 384 MTP well format. Cells were seeded in 384-w at a density of 4000 cells/well in 20 μl/well complete growth medium without antibiotics. Twenty-four hours later, cells were treated with compounds and incubated for further 2 hours. Then the cells were imaged and assayed for the response to various compounds using the reporter for TFEB expressed in the cells as readout.
The experiments were performed in a 384-well format according to the following procedure: • 24 h after seeding, cell culture medium was carefully removed and replaced with 20 μl of Opti-MEM (30′ incubation at 37° C. before compound addition) • Then, cells were incubated with compounds diluted in Opti-MEM+0.015% Tween 80 at the desired concentration, with the reference molecule (agonist) Torin-1 at a top concentration of 1 μM (max signal), and with the other reference molecule (agonist) MLSA-5 at top concentration of 20 μM for 2 hours at 37° C. and 5% CO2. The final percentage of DMSO was 0.5% in all the conditions. • Staining of the nuclei was obtained by incubating the cells with 24 μM/well of Hoechst 3342 in standard Tyrode's buffer for 15 min at RT • Then the cells were fixed with PFA 4% for 30 min at RT • After three washes with standard Tyrode's buffer, samples were acquired by recording two fluorescence emission channels (DS-red and blue) at 20× magnification and with at least 3 fields of view per well in an Operetta CLS microscope (PerkinElmer). • Image analysis was performed by using Harmony software (PerkinElmer). The image analysis involved the following steps: flat-field illumination correction, nuclei segmentation, cytoplasm segmentation and calculation of intensity fluorescence in the cytosol and nuclei compartments. Measurements of signal intensity ratio (nucleus to cytoplasm) was used to obtain information on the effects of compounds on the TFEB translocation. • Data from image analysis measurements were finally loaded and analyzed for normalization and fitting procedures in Genedata Screener© software. Data Analysis
Feature: Mean translocation ratio (mean/well)
Data normalization: Stimulator—Neutral control
The GeneData Screener method we have used, normalizes the median of the Stimulator control wells (Torin-1) to 100% and the median of the Neutral control wells (DMSO) to 0% Activity[%]=100*(x−<Min>)/(<“Max”>−<Min>)

T1 sequence (Q9GZU1 whole entry): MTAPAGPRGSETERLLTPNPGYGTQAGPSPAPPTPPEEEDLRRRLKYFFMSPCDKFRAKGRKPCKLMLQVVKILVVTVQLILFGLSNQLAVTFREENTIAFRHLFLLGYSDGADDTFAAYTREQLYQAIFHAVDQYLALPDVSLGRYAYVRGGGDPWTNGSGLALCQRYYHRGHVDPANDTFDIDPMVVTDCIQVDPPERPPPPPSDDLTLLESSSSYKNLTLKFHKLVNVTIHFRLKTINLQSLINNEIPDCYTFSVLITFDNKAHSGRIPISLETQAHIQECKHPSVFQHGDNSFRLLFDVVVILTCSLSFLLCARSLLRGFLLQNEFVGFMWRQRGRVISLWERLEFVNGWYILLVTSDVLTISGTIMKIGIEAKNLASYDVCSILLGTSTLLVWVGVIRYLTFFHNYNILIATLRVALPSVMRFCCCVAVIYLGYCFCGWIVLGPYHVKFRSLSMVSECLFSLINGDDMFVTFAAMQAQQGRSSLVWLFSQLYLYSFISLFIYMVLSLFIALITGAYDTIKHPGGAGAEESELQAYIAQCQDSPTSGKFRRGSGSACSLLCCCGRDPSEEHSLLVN

`O=C(Nc1ccc(OC2COCC2(F)F)c(F)c1)c1nc(N2CCCC2)oc1CC(F)(F)F` (racemic) [Example 71, N-(4-((4,4-difluorotetrahydrofuran-3-yl)oxy)-3-fluorophenyl)-2-(pyrrolidin-1-yl)-5-(2,2,2-trifluoroethyl)oxazole-4-carboxamide]: the EC50 at TRPML1 and in the assay on TFEB was 0.01 to 1 µM in each case.

With `O=C(Nc1ccc(OC2CCCC2(F)F)c(F)c1)c1nc(N2CCC(CO)C2)oc1CC(F)(F)F` (stereo not shown) [Example 3, N-(4-((2,2-difluorocyclopentyl)oxy)-3-fluorophenyl)-2-(3-(hydroxymethyl)pyrrolidin-1-yl)-5-(2,2,2-trifluoroethyl)oxazole-4-carboxamide], the EC50 at TRPML1 and in the assay on TFEB was 1 to 10 µM each time.

Consider `CC1(C)CN(c2nc(C(=O)Nc3ccc(OC4CCCC4(F)F)c(F)c3)c(CC(F)(F)F)o2)CCO1` (stereo not shown) [Example 4, N-{4-[(2,2-difluorocyclopentyl)oxy]-3-fluorophenyl}-2-(2,2-dimethylmorpholin-4-yl)-5-(2,2,2-trifluoroethyl)-1,3-oxazole-4-carboxamide], for which the EC50 on TRPML1 is 1 to 10 µM; in the assay with TFEB, 0.01 to 1 µM.

`O=C(Nc1ccc(OC2CCCC2(F)F)c(F)c1)c1nc(N2CCOCC2)oc1CC(F)(F)F` (stereo not shown) [Example 6, N-(4-((2,2-difluorocyclopentyl)oxy)-3-fluorophenyl)-2-morpholino-5-(2,2,2-trifluoroethyl)oxazole-4-carboxamide]: the EC50 was 1 to 10 µM on TRPML1 and 0.01 to 1 µM in the assay with TFEB.

Take `O=C(Nc1ccc(OC2CCCC2(F)F)c(F)c1)c1nc(N2CCC3(CCOC3)C2)oc1CC(F)(F)F` (stereo not shown) [Example 13, N-(4-((2,2-difluorocyclopentyl)oxy)-3-fluorophenyl)-2-(2-oxa-7-azaspiro[4.4]nonan-7-yl)-5-(2,2,2-trifluoroethyl)oxazole-4-carboxamide]: the EC50 on TRPML1 and with TFEB was 1 to 10 µM in each case.

Turning to `O=C(Nc1cc(F)c(OC2CC3C[C@@H]3C2)c(F)c1)c1nc(N2CC3(CCOCC3)C2)oc1CC(F)(F)F` (stereo partly drawn) [Example 188, N-(4-(cis-bicyclo[3.1.0]hexan-3-yloxy)-3,5-difluorophenyl)-2-(7-oxa-2-azaspiro[3.5]nonan-2-yl)-5-(2,2,2-trifluoroethyl)oxazole-4-carboxamide], the EC50 with TFEB is 0.01 to 1 µM.

In the case of `O=C(Nc1cc(F)c(OC2CC3C[C@H]3C2)c(F)c1)c1nc(N2CC3(CCOC3)C2)oc1CC(F)(F)F` (stereo partly drawn) [Example 189, N-(4-(cis-bicyclo[3.1.0]hexan-3-yloxy)-3,5-difluorophenyl)-2-(6-oxa-2-azaspiro[3.4]octan-2-yl)-5-(2,2,2-trifluoroethyl)oxazole-4-carboxamide], in the assay on TFEB, the EC50 is 0.01 to 1 µM.

With `CCc1oc(N2CC(CC)(CO)C2)nc1C(=O)Nc1cc(F)c(OC2CC3C[C@H]3C2)c(Cl)c1` (stereo partly drawn) [Example 220, N-(4-(cis-bicyclo[3.1.0]hexan-3-yloxy)-3-chloro-5-fluorophenyl)-5-ethyl-2-(3-ethyl-3-(hydroxymethyl)azetidin-1-yl)oxazole-4-carboxamide], the EC50 in the assay on TFEB was 0.01 to 1 µM.

Consider `CCc1oc(N2CCCC2)nc1C(=O)Nc1cc(F)c(OC2CC3C[C@H]3C2)c(Cl)c1` (stereo partly drawn) [Example 222, N-(4-(cis-bicyclo[3.1.0]hexan-3-yloxy)-3-chloro-5-fluorophenyl)-5-ethyl-2-(pyrrolidin-1-yl)oxazole-4-carboxamide], for which the EC50 with TFEB was 0.01 to 1 µM.

For the molecule `CCc1oc(N2CC(C)(OC)C2)nc1C(=O)Nc1cc(C)c(OC2CC3C[C@H]3C2)c(F)c1` (stereo partly drawn) [Example 226, N-(4-(cis-bicyclo[3.1.0]hexan-3-yloxy)-3-fluoro-5-methylphenyl)-5-ethyl-2-(3-methoxy-3-methylazetidin-1-yl)oxazole-4-carboxamide], the EC50 in the assay with TFEB is 0.01 to 1 µM.

On to `CCCc1oc(N2CCCC2)nc1C(=O)Nc1cc(F)c(OC2CC3C[C@H]3C2)c(F)c1` (stereo partly drawn) [Example 274, N-(4-(cis-bicyclo[3.1.0]hexan-3-yloxy)-3,5-difluorophenyl)-5-propyl-2-(pyrrolidin-1-yl)oxazole-4-carboxamide], for which the EC50 with TFEB is 0.01 to 1 µM.

On to `CCC1(CC)CN(c2nc(C(=O)Nc3cc(F)c(O[C@@H]4C[C@@H]5C[C@@H]5C4)c(F)c3)c(CN3CCC3)o2)C1` [Example 300, 5-(azetidin-1-ylmethyl)-N-(4-(cis-bicyclo[3.1.0]hexan-3-yloxy)-3,5-difluorophenyl)-2-(3,3-diethylazetidin-1-yl)oxazole-4-carboxamide], for which the EC50 at TRPML1 was 1 to 10 µM.

As to `CCC1(CC)CN(c2nc(C(=O)Nc3cc(F)c(O[C@@H]4C[C@@H]5C[C@@H]5C4)c(F)c3)c(CN(C)C)o2)C1` [Example 301, N-(4-(cis-bicyclo[3.1.0]hexan-3-yloxy)-3,5-difluorophenyl)-2-(3,3-diethylazetidin-1-yl)-5-((dimethylamino)methyl)oxazole-4-carboxamide], the EC50 on TRPML1 is 1 to 10 µM.

For the molecule `Cc1cc(NC(=O)c2nc(N3CCCC3)oc2CN2CCC2)cc(F)c1O[C@@H]1C[C@@H]2C[C@@H]2C1` [Example 305, 5-(azetidin-1-ylmethyl)-N-(4-(cis-bicyclo[3.1.0]hexan-3-yloxy)-3-fluoro-5-methylphenyl)-2-(pyrrolidin-1-yl)oxazole-4-carboxamide], at TRPML1, the EC50 is 1 to 10 µM.

For the molecule `O=C(Nc1cc(F)c(O[C@@H]2C[C@@H]3C[C@@H]3C2)c(F)c1)c1nc(N2CCCC2)oc1CN1CCC1` [Example 306, 5-(azetidin-1-ylmethyl)-N-(4-(cis-bicyclo[3.1.0]hexan-3-yloxy)-3,5-difluorophenyl)-2-(pyrrolidin-1-yl)oxazole-4-carboxamide], the EC50 at TRPML1 was 1 to 10 µM.

As for `CCC1(CC)CN(c2nc(C(=O)Nc3cc(C)c4c(c3)CCN4C3CC4CC4C3)c(CC(F)(F)F)o2)C1` (stereo not shown) [Example 310, N-(1-(bicyclo[3.1.0]hexan-3-yl)-7-methylindolin-5-yl)-2-(3,3-diethylazetidin-1-yl)-5-(2,2,2-trifluoroethyl)oxazole-4-carboxamide], the EC50 on TRPML1 is 1 to 10 µM.

Regarding `CCC1(CC)CN(c2nc(C(=O)Nc3cc(F)c4c(c3)CCN4C3CC4CC4C3)c(CC(F)(F)F)o2)C1` (stereo not shown) [Example 311, N-(1-(bicyclo[3.1.0]hexan-3-yl)-7-fluoroindolin-5-yl)-2-(3,3-diethylazetidin-1-yl)-5-(2,2,2-trifluoroethyl)oxazole-4-carboxamide], the EC50 on TRPML1 is 1 to 10 µM.

As for `COC1(C)CN(c2nc(C(=O)Nc3cc(F)c4c(c3)CCN4C3CC4CC4C3)c(CC(F)(F)F)o2)C1` (stereo not shown) [Example 312, N-(1-(bicyclo[3.1.0]hexan-3-yl)-7-fluoroindolin-5-yl)-2-(3-methoxy-3-methylazetidin-1-yl)-5-(2,2,2-trifluoroethyl)oxazole-4-carboxamide], on TRPML1, the EC50 was 1 to 10 µM.

Take `CCC1(OC)CN(c2nc(C(=O)Nc3cc(F)c4c(c3)CCN4C3CC4CC4C3)c(CC(F)(F)F)o2)C1` (stereo not shown) [Example 313, N-(1-(bicyclo[3.1.0]hexan-3-yl)-7-fluoroindolin-5-yl)-2-(3-ethyl-3-methoxyazetidin-1-yl)-5-(2,2,2-trifluoroethyl)oxazole-4-carboxamide]: the EC50 at TRPML1 was 1 to 10 µM.

Turning to `O=C(Nc1cc(F)c2c(c1)CCN2C1CC2CC2C1)c1nc(N2CCC3(COC3)C2)oc1CC(F)(F)F` (stereo not shown) [Example 314, N-(1-(bicyclo[3.1.0]hexan-3-yl)-7-fluoroindolin-5-yl)-2-(2-oxa-6-azaspiro[3.4]octan-6-yl)-5-(2,2,2-trifluoroethyl)oxazole-4-carboxamide], the EC50 at TRPML1 was 1 to 10 µM.

Source of the values: US12098145B2 (Libra Therapeutics, Inc., priority 2022, dated 2024).
